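A five-concentration, 48-hour dose response in 96-well plates underlies each endpoint, interpolated linearly between surrounding concentrations. GI50 marks 50% less growth.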 Calls of active or inactive are those of the source. Cut-off read from the data, not from the text of the source: active = GI50 up to about 1.1 µM and inactive = higher.
What was measured:
Test in all cases: NCI tumour cell line growth inhibition, 48 h
[1] = test system: BT-549
[2] = test system: HCT-116
[3] = test system: HOP-62
[4] = test system: HOP-92
[5] = test system: K562
[6] = test system: M14
[7] = test system: Malme-3M
[8] = test system: OVCAR-3
[9] = test system: OVCAR-4
[10] = test system: OVCAR-5
[11] = test system: RPMI-8226
[12] = test system: SF-268
[13] = test system: SK-MEL-2
[14] = test system: SK-MEL-5
[15] = test system: SNB-19
[16] = test system: TK-10
[17] = test system: UACC-257
[18] = test system: UACC-62
[19] = test system: CCRF-CEM
[20] = test system: SNB-75

Structure (SMILES) | GI50 [1] | GI50 [2] | GI50 [3] | GI50 [4] | GI50 [5] | GI50 [6] | GI50 [7] | GI50 [8] | GI50 [9] | GI50 [10] | GI50 [11] | GI50 [12] | GI50 [13] | GI50 [14] | GI50 [15] | GI50 [16] | GI50 [17] | GI50 [18] | GI50 [19] | GI50 [20]
Nc1ncnc2c1nc(O)n2-c1ccccc1 | > 100 µM (inactive) | > 100 µM (inactive) | > 100 µM (inactive) | 96.8 µM (inactive) | > 100 µM (inactive) | > 100 µM (inactive) | > 100 µM (inactive) | > 100 µM (inactive) | > 100 µM (inactive) | > 100 µM (inactive) | > 100 µM (inactive) | > 100 µM (inactive) | > 100 µM (inactive) | > 100 µM (inactive) | > 100 µM (inactive) | > 100 µM (inactive) | > 100 µM (inactive) | > 100 µM (inactive) |  | 
C=CCC(SC)C1=C(C)C(=O)c2ccccc21 (centres undefined) | > 10 µM (inactive) |  | > 10 µM (inactive) | > 10 µM (inactive) | > 10 µM (inactive) | > 10 µM (inactive) | > 10 µM (inactive) | > 10 µM (inactive) |  | > 10 µM (inactive) | > 10 µM (inactive) | > 10 µM (inactive) | > 10 µM (inactive) | > 10 µM (inactive) | > 10 µM (inactive) | > 10 µM (inactive) | > 10 µM (inactive) | > 10 µM (inactive) | 6.55 µM (inactive) | 
O=C(OCC(Cl)(Cl)Cl)N1CC[C@@H](C2CCCCC2)C1 | 38.2 µM (inactive) | 29.6 µM (inactive) | 20.4 µM (inactive) |  | 21.5 µM (inactive) | 34.8 µM (inactive) |  | 18.1 µM (inactive) | 18.6 µM (inactive) | 23.7 µM (inactive) |  | 17.3 µM (inactive) | 18.3 µM (inactive) | 18.1 µM (inactive) | 19.7 µM (inactive) | 30.1 µM (inactive) | 28.4 µM (inactive) | 27.7 µM (inactive) | 21.5 µM (inactive) | 21.7 µM (inactive)
CCOC(=O)C12C(=O)CCN1CCc1ccccc1C2C (centres undefined) | > 100 µM (inactive) | > 100 µM (inactive) | > 100 µM (inactive) | > 100 µM (inactive) | > 100 µM (inactive) | > 100 µM (inactive) | > 100 µM (inactive) | > 100 µM (inactive) | > 100 µM (inactive) | > 100 µM (inactive) | > 100 µM (inactive) | > 100 µM (inactive) | > 100 µM (inactive) | > 100 µM (inactive) | > 100 µM (inactive) | > 100 µM (inactive) | > 100 µM (inactive) | > 100 µM (inactive) |  | 
O=C1COc2cc(NC(=S)Nc3ccccc3)ccc2N1 |  | > 100 µM (inactive) | > 100 µM (inactive) | > 100 µM (inactive) | > 100 µM (inactive) | > 100 µM (inactive) | > 100 µM (inactive) | > 100 µM (inactive) | > 100 µM (inactive) | > 100 µM (inactive) | > 100 µM (inactive) | > 100 µM (inactive) | > 100 µM (inactive) | > 100 µM (inactive) | > 100 µM (inactive) | > 100 µM (inactive) | > 100 µM (inactive) | > 100 µM (inactive) | > 100 µM (inactive) | > 100 µM (inactive)
O=C(O)c1ccc(Nc2nc3ccc(C(F)(F)F)cc3nc2C(=O)O)cc1 |  | > 100 µM (inactive) | > 100 µM (inactive) | > 100 µM (inactive) | > 100 µM (inactive) | > 100 µM (inactive) | > 100 µM (inactive) | > 100 µM (inactive) | > 100 µM (inactive) | > 100 µM (inactive) | > 100 µM (inactive) | > 100 µM (inactive) | > 100 µM (inactive) | > 100 µM (inactive) | > 100 µM (inactive) | > 100 µM (inactive) | > 100 µM (inactive) | > 100 µM (inactive) | > 100 µM (inactive) | > 100 µM (inactive)
CC12Cc3cc4c(cc3C1(c1ccc([N+](=O)[O-])cc1)OCCO2)OCO4 (centres undefined) | 25.5 µM (inactive) | 65.3 µM (inactive) | 18.1 µM (inactive) |  | > 100 µM (inactive) | > 100 µM (inactive) | > 100 µM (inactive) | > 100 µM (inactive) | > 100 µM (inactive) | > 100 µM (inactive) | > 100 µM (inactive) | 22.8 µM (inactive) | 32.2 µM (inactive) | > 100 µM (inactive) | 28.6 µM (inactive) | 37.8 µM (inactive) | > 100 µM (inactive) | 36.8 µM (inactive) | > 100 µM (inactive) | 
CC(=O)NN/C=N/C(C#N)=C(\N)C#N | > 100 µM (inactive) | > 100 µM (inactive) | > 100 µM (inactive) |  | > 100 µM (inactive) | > 100 µM (inactive) | > 100 µM (inactive) | > 100 µM (inactive) | > 100 µM (inactive) | > 100 µM (inactive) | > 100 µM (inactive) | > 100 µM (inactive) | > 100 µM (inactive) | > 100 µM (inactive) | > 100 µM (inactive) | > 100 µM (inactive) | > 100 µM (inactive) | > 100 µM (inactive) | > 100 µM (inactive) | > 100 µM (inactive)
Cc1cccc(C)c1NC(=O)/C=C/c1ccccc1 | > 100 µM (inactive) | > 100 µM (inactive) | 50.1 µM (inactive) |  | > 100 µM (inactive) | > 100 µM (inactive) | 51.2 µM (inactive) | > 100 µM (inactive) | > 100 µM (inactive) | > 100 µM (inactive) | > 100 µM (inactive) | > 100 µM (inactive) | > 100 µM (inactive) | > 100 µM (inactive) | > 100 µM (inactive) | > 100 µM (inactive) | > 100 µM (inactive) | > 100 µM (inactive) | > 100 µM (inactive) | 31.2 µM (inactive)
Cc1c2n(c3ccccc13)S(=O)(=O)c1ccccc1-2 | 39.8 µM (inactive) | 21.2 µM (inactive) |  | 30.2 µM (inactive) | > 100 µM (inactive) | 27.4 µM (inactive) | 33.1 µM (inactive) | 45.9 µM (inactive) | 17.2 µM (inactive) | 88.3 µM (inactive) | > 100 µM (inactive) |  |  | 72.1 µM (inactive) | 19.8 µM (inactive) | 25.6 µM (inactive) | > 100 µM (inactive) | 28.1 µM (inactive) | > 100 µM (inactive) | 
S=c1nc(Nc2ccc(Cl)cc2)c2c3c(sc2[nH]1)CCCC3 | > 100 µM (inactive) | > 100 µM (inactive) | > 100 µM (inactive) | 76 µM (inactive) | 38.5 µM (inactive) |  | > 100 µM (inactive) | > 100 µM (inactive) | > 100 µM (inactive) | > 100 µM (inactive) | 24.4 µM (inactive) | > 100 µM (inactive) | > 100 µM (inactive) | > 100 µM (inactive) | > 100 µM (inactive) | > 100 µM (inactive) | > 100 µM (inactive) | > 100 µM (inactive) | 36.2 µM (inactive) | 
COc1cccc(C23CCCC(C2)N(C)CC3OC(=O)c2ccccc2)c1OC (centres undefined) | 14.5 µM (inactive) | 20 µM (inactive) | 31.3 µM (inactive) |  | 18.8 µM (inactive) | 15.9 µM (inactive) | 16.6 µM (inactive) | 24.8 µM (inactive) | 24 µM (inactive) | 26.4 µM (inactive) | 18.6 µM (inactive) | 32 µM (inactive) | 31.8 µM (inactive) | 14 µM (inactive) | 35.6 µM (inactive) |  | 25.8 µM (inactive) | 25.9 µM (inactive) | 12.5 µM (inactive) | 
Cc1nc(NC(C)(CO)CO)nc(N/N=C/c2ccc(Cl)cc2)c1C(=O)Nc1ccc(Cl)cc1 | > 100 µM (inactive) | 80.2 µM (inactive) | > 100 µM (inactive) |  | > 100 µM (inactive) | > 100 µM (inactive) | > 100 µM (inactive) | > 100 µM (inactive) | > 100 µM (inactive) | > 100 µM (inactive) | > 100 µM (inactive) | > 100 µM (inactive) | > 100 µM (inactive) |  | > 100 µM (inactive) | > 100 µM (inactive) | > 100 µM (inactive) | 59.8 µM (inactive) | 42.9 µM (inactive) | > 100 µM (inactive)
O=S(=O)(O)c1cc(Nc2ccnc3ccccc23)c2c(S(=O)(=O)O)cc(S(=O)(=O)O)cc2c1 | > 100 µM (inactive) | > 100 µM (inactive) | > 100 µM (inactive) |  |  | > 100 µM (inactive) | > 100 µM (inactive) | > 100 µM (inactive) | > 100 µM (inactive) | > 100 µM (inactive) | > 100 µM (inactive) | > 100 µM (inactive) | > 100 µM (inactive) | > 100 µM (inactive) |  | > 100 µM (inactive) | > 100 µM (inactive) | > 100 µM (inactive) | > 100 µM (inactive) | > 100 µM (inactive)
CCOC(=O)c1ccc(N[C@@H]2c3cc4c(cc3C(C3=CC(=O)C(=O)C(OC)=C3)[C@H]3C(=O)OCC32)OCO4)cc1 (some centres undefined) |  | 2.86 µM (inactive) | 0.512 µM (active) | 2.04 µM (inactive) | 2.67 µM (inactive) | 2.51 µM (inactive) | 2.53 µM (inactive) | 8.47 µM (inactive) | 24.2 µM (inactive) | 4.88 µM (inactive) | 1.06 µM (active) | 1.77 µM (inactive) | 2.82 µM (inactive) | 2.72 µM (inactive) | 2.49 µM (inactive) | 9.84 µM (inactive) | 9.08 µM (inactive) | 1.69 µM (inactive) | 0.845 µM (active) | 1.58 µM (inactive)
